Reference: PubChem BioAssay (NCI)
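These data come from cells grown in 96-well plates and exposed to compound for 48 hours at five concentrations. The concentration for full growth arrest is given as TGI.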

Experiments:
Test in all cases: NCI anticancer screen, dose series, 48 h
SNB-75 CNS = test system: SNB-75 CNS
MDA-MB-435 = test system: MDA-MB-435
RPMI-8226 leukemia = test system: RPMI-8226 leukemia
SK-MEL-2 melanoma = test system: SK-MEL-2 melanoma
MCF7 breast = test system: MCF7 breast
SF-295 CNS = test system: SF-295 CNS
MOLT-4 leukemia = test system: MOLT-4 leukemia
K-562 leukemia = test system: K-562 leukemia
NCI-H23 lung = test system: NCI-H23 lung
HOP-92 NSCLC = test system: HOP-92 NSCLC
NCI-H226 lung = test system: NCI-H226 lung
SK-OV-3 ovarian = test system: SK-OV-3 ovarian
BT-549 breast = test system: BT-549 breast
786-0 renal = test system: 786-0 renal
RXF 393 renal = test system: RXF 393 renal
HOP-62 NSCLC = test system: HOP-62 NSCLC
NCI/ADR-RES ovarian = test system: NCI/ADR-RES ovarian
KM12 colon = test system: KM12 colon
SF-268 CNS = test system: SF-268 CNS
HS 578T breast = test system: HS 578T breast
SF-539 CNS = test system: SF-539 CNS
MDA-MB-231 breast = test system: MDA-MB-231 breast
TK-10 renal = test system: TK-10 renal
A549 NSCLC = test system: A549 NSCLC
HT29 colon = test system: HT29 colon
HL-60(TB) leukemia = test system: HL-60(TB) leukemia
DU-145 prostate = test system: DU-145 prostate
PC-3 prostate = test system: PC-3 prostate
CCRF-CEM leukemia = test system: CCRF-CEM leukemia
COLO 205 colon = test system: COLO 205 colon
SK-MEL-28 melanoma = test system: SK-MEL-28 melanoma
OVCAR-4 ovarian = test system: OVCAR-4 ovarian
MALME-3M melanoma = test system: MALME-3M melanoma
IGROV1 ovarian = test system: IGROV1 ovarian
ACHN renal = test system: ACHN renal
HCC-2998 colon = test system: HCC-2998 colon
U251 CNS = test system: U251 CNS
OVCAR-8 ovarian = test system: OVCAR-8 ovarian
UO-31 renal = test system: UO-31 renal
UACC-257 melanoma = test system: UACC-257 melanoma
M14 melanoma = test system: M14 melanoma
SW-620 colon = test system: SW-620 colon
NCI-H522 lung = test system: NCI-H522 lung
NCI-H460 lung = test system: NCI-H460 lung
SNB-19 CNS = test system: SNB-19 CNS
SN12C renal = test system: SN12C renal
MDA-N = test system: MDA-N
T-47D breast = test system: T-47D breast
LOX IMVI melanoma = test system: LOX IMVI melanoma
SK-MEL-5 melanoma = test system: SK-MEL-5 melanoma
SR leukemia = test system: SR leukemia
EKVX NSCLC = test system: EKVX NSCLC
OVCAR-5 ovarian = test system: OVCAR-5 ovarian
OVCAR-3 ovarian = test system: OVCAR-3 ovarian
CAKI-1 renal = test system: CAKI-1 renal
HCT-15 colon = test system: HCT-15 colon
HCT-116 colon = test system: HCT-116 colon

`COc1ccc2oc(=Nc3ccccc3)c(C(N)=O)cc2c1` showed a TGI (SNB-75 CNS) greater than 100 µM, a TGI (MDA-MB-435) greater than 24.4 µM and a TGI (RPMI-8226 leukemia) greater than 100 µM. The TGI (SK-MEL-2 melanoma) was greater than 100 µM, the TGI (MCF7 breast) was greater than 100 µM and the TGI (SF-295 CNS) was greater than 100 µM. It also gave a TGI (MOLT-4 leukemia) greater than 100 µM, a TGI (K-562 leukemia) greater than 100 µM and a TGI (NCI-H23 lung) greater than 100 µM. The TGI (HOP-92 NSCLC) was greater than 100 µM, the TGI (NCI-H226 lung) was greater than 100 µM and the TGI (SK-OV-3 ovarian) was greater than 70.2 µM. It also gave a TGI (BT-549 breast) greater than 100 µM, a TGI (786-0 renal) greater than 100 µM and a TGI (RXF 393 renal) greater than 100 µM. The TGI (HOP-62 NSCLC) was 98.4 µM, the TGI (NCI/ADR-RES ovarian) was greater than 100 µM and the TGI (KM12 colon) was greater than 100 µM. It also gave a TGI (SF-268 CNS) greater than 100 µM, a TGI (HS 578T breast) greater than 70.1 µM and a TGI (SF-539 CNS) greater than 100 µM. The TGI (MDA-MB-231 breast) was greater than 100 µM, the TGI (TK-10 renal) was greater than 87.6 µM and the TGI (A549 NSCLC) was greater than 100 µM. The TGI (HT29 colon) was greater than 100 µM, the TGI (HL-60(TB) leukemia) was greater than 100 µM and the TGI (DU-145 prostate) was greater than 100 µM. The TGI (PC-3 prostate) was greater than 100 µM, the TGI (CCRF-CEM leukemia) was greater than 100 µM and the TGI (COLO 205 colon) was greater than 100 µM. For the same molecule, the TGI (SK-MEL-28 melanoma) was greater than 100 µM, the TGI (OVCAR-4 ovarian) was greater than 100 µM and the TGI (MALME-3M melanoma) was greater than 100 µM. It also gave a TGI (IGROV1 ovarian) greater than 100 µM, a TGI (ACHN renal) of 42 µM and a TGI (HCC-2998 colon) greater than 100 µM. For the same molecule, the TGI (U251 CNS) was greater than 100 µM, the TGI (OVCAR-8 ovarian) was greater than 100 µM and the TGI (UO-31 renal) was greater than 55.6 µM. It also gave a TGI (UACC-257 melanoma) greater than 100 µM, a TGI (M14 melanoma) greater than 100 µM and a TGI (SW-620 colon) greater than 100 µM. For the same molecule, the TGI (NCI-H522 lung) was greater than 100 µM, the TGI (NCI-H460 lung) was greater than 100 µM and the TGI (SNB-19 CNS) was greater than 45.1 µM. The TGI (SN12C renal) was greater than 100 µM, the TGI (MDA-N) was greater than 100 µM and the TGI (T-47D breast) was greater than 100 µM. It also gave a TGI (LOX IMVI melanoma) greater than 100 µM, a TGI (SK-MEL-5 melanoma) greater than 100 µM and a TGI (SR leukemia) greater than 100 µM. For the same molecule, the TGI (EKVX NSCLC) was greater than 100 µM, the TGI (OVCAR-5 ovarian) was greater than 100 µM and the TGI (OVCAR-3 ovarian) was greater than 100 µM. It also gave a TGI (CAKI-1 renal) greater than 100 µM, a TGI (HCT-15 colon) greater than 100 µM and a TGI (HCT-116 colon) greater than 100 µM.
